Read-outs that look alike come from different tables or passages of the source.
Key:
[1] = target: T1, Tyro3 (Homo sapiens (Human), UniProt Q06418); test: biochemical
[2] = target: T2, Axl (Homo sapiens (Human), UniProt P30530); test: biochemical
[3] = target: T1, Tyro3; details: read-out: IC50 Tyro3
[4] = target: T2, Axl; details: read-out: IC50 Axl
[5] = target: MerTK (Homo sapiens (Human), UniProt Q12866); details: read-out: IC50 MerTK
MerTK, sequence (Q12866 21-999 limits assumed): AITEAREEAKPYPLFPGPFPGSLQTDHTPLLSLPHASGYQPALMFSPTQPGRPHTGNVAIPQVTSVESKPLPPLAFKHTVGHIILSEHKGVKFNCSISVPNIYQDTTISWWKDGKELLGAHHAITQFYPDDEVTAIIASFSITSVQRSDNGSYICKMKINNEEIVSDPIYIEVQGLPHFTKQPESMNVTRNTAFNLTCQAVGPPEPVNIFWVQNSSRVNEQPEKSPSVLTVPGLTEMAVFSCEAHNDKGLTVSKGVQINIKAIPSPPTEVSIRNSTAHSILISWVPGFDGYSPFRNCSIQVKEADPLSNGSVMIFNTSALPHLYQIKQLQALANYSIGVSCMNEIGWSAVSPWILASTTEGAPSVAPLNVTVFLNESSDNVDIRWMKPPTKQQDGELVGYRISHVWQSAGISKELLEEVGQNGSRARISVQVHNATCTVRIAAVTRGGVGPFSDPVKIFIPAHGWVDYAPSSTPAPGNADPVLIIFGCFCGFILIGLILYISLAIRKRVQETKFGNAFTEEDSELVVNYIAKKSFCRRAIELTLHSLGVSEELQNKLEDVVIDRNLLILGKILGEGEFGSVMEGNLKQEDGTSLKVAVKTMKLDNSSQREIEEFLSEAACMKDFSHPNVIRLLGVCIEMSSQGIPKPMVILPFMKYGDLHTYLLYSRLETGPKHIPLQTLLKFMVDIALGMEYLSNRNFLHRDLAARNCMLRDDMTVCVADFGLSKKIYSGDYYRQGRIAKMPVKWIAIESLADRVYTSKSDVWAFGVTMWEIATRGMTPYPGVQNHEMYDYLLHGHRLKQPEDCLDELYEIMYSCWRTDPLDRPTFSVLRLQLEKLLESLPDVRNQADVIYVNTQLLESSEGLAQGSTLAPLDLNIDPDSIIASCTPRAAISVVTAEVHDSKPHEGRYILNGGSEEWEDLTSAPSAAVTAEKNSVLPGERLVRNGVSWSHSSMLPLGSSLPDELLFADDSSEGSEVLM

T1 sequence (Q06418 41-890 limits assumed): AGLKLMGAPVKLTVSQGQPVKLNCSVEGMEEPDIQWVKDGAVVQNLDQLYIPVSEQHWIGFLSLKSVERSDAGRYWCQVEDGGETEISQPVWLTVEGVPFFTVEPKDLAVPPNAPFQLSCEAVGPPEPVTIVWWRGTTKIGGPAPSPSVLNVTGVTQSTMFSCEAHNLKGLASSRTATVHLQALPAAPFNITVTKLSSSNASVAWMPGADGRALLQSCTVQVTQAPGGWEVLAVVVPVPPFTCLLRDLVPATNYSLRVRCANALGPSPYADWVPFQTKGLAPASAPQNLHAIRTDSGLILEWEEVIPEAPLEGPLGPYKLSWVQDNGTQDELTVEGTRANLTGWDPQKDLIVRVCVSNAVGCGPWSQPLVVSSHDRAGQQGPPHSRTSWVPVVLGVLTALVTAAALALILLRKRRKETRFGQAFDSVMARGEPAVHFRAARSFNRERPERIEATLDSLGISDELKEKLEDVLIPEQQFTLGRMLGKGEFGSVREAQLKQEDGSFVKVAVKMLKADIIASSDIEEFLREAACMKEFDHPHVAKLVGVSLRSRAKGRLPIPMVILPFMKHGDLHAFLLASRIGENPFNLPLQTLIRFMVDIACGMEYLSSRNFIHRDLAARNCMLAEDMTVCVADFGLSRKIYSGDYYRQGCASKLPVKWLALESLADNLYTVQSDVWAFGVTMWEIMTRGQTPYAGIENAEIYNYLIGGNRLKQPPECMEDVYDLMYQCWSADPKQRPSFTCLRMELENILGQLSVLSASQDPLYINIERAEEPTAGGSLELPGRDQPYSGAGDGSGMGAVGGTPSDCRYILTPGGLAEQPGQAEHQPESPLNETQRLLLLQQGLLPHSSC
T2 sequence (P30530 26-894 limits assumed): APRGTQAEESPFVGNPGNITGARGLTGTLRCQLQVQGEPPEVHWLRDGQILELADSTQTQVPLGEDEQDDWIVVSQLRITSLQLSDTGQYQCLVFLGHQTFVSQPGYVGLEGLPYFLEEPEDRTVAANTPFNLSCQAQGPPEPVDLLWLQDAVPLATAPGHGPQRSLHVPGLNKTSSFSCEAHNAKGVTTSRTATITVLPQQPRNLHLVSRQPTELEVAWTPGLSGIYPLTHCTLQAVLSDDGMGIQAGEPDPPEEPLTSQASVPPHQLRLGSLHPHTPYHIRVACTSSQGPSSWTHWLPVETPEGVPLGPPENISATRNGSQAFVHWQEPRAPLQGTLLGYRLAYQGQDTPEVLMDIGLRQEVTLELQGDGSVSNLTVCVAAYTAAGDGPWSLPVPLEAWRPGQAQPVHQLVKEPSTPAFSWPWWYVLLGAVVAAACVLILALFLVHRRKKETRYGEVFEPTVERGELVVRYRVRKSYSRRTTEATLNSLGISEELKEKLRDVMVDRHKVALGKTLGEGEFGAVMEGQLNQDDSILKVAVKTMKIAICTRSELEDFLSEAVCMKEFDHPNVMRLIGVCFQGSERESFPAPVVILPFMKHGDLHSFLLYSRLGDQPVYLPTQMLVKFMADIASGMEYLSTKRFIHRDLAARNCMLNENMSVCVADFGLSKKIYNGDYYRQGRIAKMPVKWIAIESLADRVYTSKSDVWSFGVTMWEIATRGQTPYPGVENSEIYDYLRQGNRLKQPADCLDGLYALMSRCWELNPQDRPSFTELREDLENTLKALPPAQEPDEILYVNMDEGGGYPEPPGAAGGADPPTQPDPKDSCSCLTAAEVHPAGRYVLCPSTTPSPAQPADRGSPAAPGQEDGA

With `CCCCNc1ncc(-c2ccc(CNCc3ccccc3)cn2)c(N[C@H]2CC[C@H](O)CC2)n1` [UNC2572A] the IC50 [1] was 43 nM and the IC50 [2] was 136 nM.

Work on `CCCCNc1ncc(-c2cccc(CN3CCN(C)CC3)n2)c(N[C@H]2CC[C@H](O)CC2)n1` [UNC2622A] yielded an IC50 [1] of 162 nM and an IC50 [2] of 296 nM.

With `CCCCNc1ncc(C(=O)NC2CC(C)(C)N(C)C(C)(C)C2)c(N[C@H]2CC[C@H](O)CC2)n1` [UNC2695A] the IC50 [1] was 76 nM and the IC50 [2] was 233 nM.

`CCCCNc1ncc(C(=O)NC2CCN(C3CCN(C)CC3)CC2)c(N[C@H]2CC[C@H](O)CC2)n1` [UNC2698A] was tested, and the IC50 [1] was 43 nM and the IC50 [2] was 175 nM.

`CCCCNc1ncc(C(=O)NC2CCCCCC2)c(N[C@H]2CC[C@H](O)CC2)n1` [UNC2734A] gave an IC50 [1] of 505 nM and an IC50 [2] of 665 nM.

In the case of `CCCCNc1ncc(C(=O)NCc2ccc(CN3CCOCC3)cc2)c(N[C@H]2CC[C@H](O)CC2)n1` [UNC2735A], the IC50 [1] is reported as 145 nM and the IC50 [2] is reported as 189 nM.

In the case of `CCCCNc1ncc(C(=O)NC2CCC2)c(N[C@H]2CC[C@H](O)CC2)n1` [UNC2737A], the IC50 [1] is reported as 443 nM and the IC50 [2] is reported as 491 nM.

In the case of `CCCCNc1ncc(C(=O)NCC2CCN(C)CC2)c(N[C@H]2CC[C@H](O)CC2)n1` [UNC2742A], the IC50 [1] is reported as 247 nM and the IC50 [2] is reported as 534 nM.

`CCCCNc1ncc(C(=O)NCC2CCN(C3CCCC3)CC2)c(N[C@H]2CC[C@H](O)CC2)n1` [UNC2743A] was tested, and the IC50 [1] was 84 nM and the IC50 [2] was 166 nM.

`CCCCNc1ncc(-c2ccc(CCCN3CCN(C)CC3)cn2)c(N[C@H]2CC[C@H](O)CC2)n1` [UNC2792A] was tested, and the IC50 [1] was 75 nM and the IC50 [2] was 191 nM.

For `CCCCNc1ncc(-c2ccc(C#CCN3CCN(C)CC3)cn2)c(N[C@H]2CC[C@H](O)CC2)n1` [UNC2793A], the IC50 [1] was 60 nM and the IC50 [2] was 153 nM.

With `CCCCNc1ncc(-c2cnccn2)c(N[C@H]2CC[C@H](O)CC2)n1` [UNC2794A] the IC50 [1] was 158 nM and the IC50 [2] was 604 nM.

In the case of `CCCCNc1ncc(-c2ccc(CCN3CCN(C)CC3)cn2)c(N[C@H]2CC[C@H](O)CC2)n1` [UNC2795A], the IC50 [1] is reported as 82 nM and the IC50 [2] is reported as 211 nM.

Work on `CCCCNc1ncc(-c2ccc3ccccc3n2)c(N[C@H]2CC[C@H](O)CC2)n1` [UNC2860A] yielded an IC50 [1] of 755 nM and an IC50 [2] of 30000 nM.

Work on `CCCCNc1ncc(-c2ncc(COCc3ccccc3)s2)c(N[C@H]2CC[C@H](O)CC2)n1` [UNC2863A] yielded an IC50 [1] of 1220 nM and an IC50 [2] of 2610 nM.

Work on `CCCCNc1ncc(-c2ccc(CN3CCOCC3)o2)c(N[C@H]2CC[C@H](O)CC2)n1` [UNC2898A] yielded an IC50 [1] of 374 nM and an IC50 [2] of 2550 nM.

Molecule `CCCCNc1ncc(-c2ccc(CN3CC(F)(F)C3)o2)c(N[C@H]2CC[C@H](O)CC2)n1` [UNC2900A] has an IC50 [1] of 370 nM and an IC50 [2] of 1850 nM.

In the case of `CCCCNc1ncc(-c2ccc(C(=O)N(C)C3CCN(C)CC3)cn2)c(N[C@H]2CC[C@H](O)CC2)n1` [UNC2915A], the IC50 [1] is reported as 6.5 nM and the IC50 [2] is reported as 49 nM.

`CCCCNc1ncc(-c2ccc(F)cn2)c(NC[C@H]2CC[C@H](N)CC2)n1` [UNC3021A] was tested, and the IC50 [1] was 114 nM and the IC50 [2] was 621 nM.

`CCCCNc1ncc(-c2ccc(C(=O)NC3CCN(C)CC3)o2)c(N[C@H]2CC[C@H](O)CC2)n1` [UNC3181A] gave an IC50 [1] of 507 nM and an IC50 [2] of 1030 nM.

`CCCCNc1ncc(-c2cc(NC(C)C)ncn2)c(N[C@H]2CC[C@H](O)CC2)n1` [UNC3192A] showed an IC50 [1] of 77 nM and an IC50 [2] of 86 nM.

With `CCCCNc1ncc(-c2cc(NC3CC3)ncn2)c(N[C@H]2CC[C@H](O)CC2)n1` [UNC3193A] the IC50 [1] was 115 nM and the IC50 [2] was 169 nM.

`CCCCNc1ncc(-c2cc(NC3CCCCC3)ncn2)c(N[C@H]2CC[C@H](O)CC2)n1` [UNC3194A] showed an IC50 [1] of 239 nM and an IC50 [2] of 260 nM.

Molecule `CCCCNc1ncc(-c2cc(N3CCCC3)ncn2)c(N[C@H]2CC[C@H](O)CC2)n1` [UNC3195A] has an IC50 [1] of 230 nM and an IC50 [2] of 188 nM.

`CCCCNc1ncc(-c2cc(N3CCOCC3)ncn2)c(N[C@H]2CC[C@H](O)CC2)n1` [UNC3196A] gave an IC50 [1] of 1000 nM and an IC50 [2] of 2130 nM.

`CCCCNc1ncc(-c2cc(N3CCN(C)CC3)ncn2)c(N[C@H]2CC[C@H](O)CC2)n1` [UNC3197A] was tested, and the IC50 [1] was 1170 nM and the IC50 [2] was 1680 nM.

`CCCCNc1ncc(-c2cc(N3CCCCC3)ncn2)c(N[C@H]2CC[C@H](O)CC2)n1` [UNC3198A] was tested, and the IC50 [1] was 3740 nM and the IC50 [2] was 6070 nM.

`CCCCNc1ncc(-c2cc(NC3CCCC3)ncn2)c(N[C@H]2CC[C@H](O)CC2)n1` [UNC3199A] gave an IC50 [1] of 847 nM and an IC50 [2] of 1360 nM.

In the case of `CCCCNc1ncc(-c2cc(NC(C)(C)C)ncn2)c(N[C@H]2CC[C@H](O)CC2)n1` [UNC3200A], the IC50 [1] is reported as 259 nM and the IC50 [2] is reported as 480 nM.

For `CCCCCNc1cc(-c2cnc(NCCCC)nc2N[C@H]2CC[C@H](O)CC2)ncn1` [UNC3201A], the IC50 [1] was 195 nM and the IC50 [2] was 112 nM.

With `CCCCNc1ncc(-c2ncc(CN3CCCC3)s2)c(N[C@H]2CC[C@H](O)CC2)n1` [UNC4223A] the IC50 [1] was 14 nM and the IC50 [2] was 29 nM.

For `CCCCNc1ncc(-c2ccc(CC3CCN(C)CC3)cn2)c(N[C@H]2CC[C@H](O)CC2)n1` [UNC4337A, Trans-4-((2-(butylamino)-5-(5-((1-methylpiperidin-4-yl)methyl)pyridin-2-yl)pyrimidin-4-yl)amino)cyclohexan-1-ol], the IC50 [3] was 66 nM, the IC50 [4] was 74 nM and the IC50 [5] was 4.4 nM.

In the case of `CCCCNc1ncc(-c2ccc(C=C3CCN(C(C)C)CC3)cn2)c(N[C@H]2CC[C@H](O)CC2)n1` [UNC4340A], the IC50 [3] is reported as 8.5 nM, the IC50 [4] is reported as 9.2 nM and the IC50 [5] is reported as 1.1 nM.

Source: patent US9649309B2 (priority 2014, dated 2017)
